Laboratory results as given in US20080058213A1, “Benzoxazole Compounds” (priority 2004, published 2008).

How the values were obtained:
Format in all cases: in vivo
[1] = system: barnyard grass (Echinochloa crusgalli); assay: Weed control test for paddy field (Test Example 1): barnyard grass; details: paddy pots, treated at 1.0 leaf stage of barnyard grass, examined after 3 weeks
Excerpt: (§1) Paddy field soil was filled in 1/10,000 are pots, kneaded with adequate amounts of water and chemical fertilizer, seeded with barnyard grass (Echinochloa crusgalli), Monochoria (Monochoria vaginalis), Japanese bulrush (Scirpus juncoides) and flat sedge (Cyperus serotinus), and further transplanted with 2.0 leaf stage of rice plant. The pots were maintained under the water-filled condition to a depth of 3 cm.
(§2) Wettable powders containing the compounds (1) as identified in Table 1, which were formulated following Production Example 2, were diluted with adequate amount of water and applied to the pots dropwise with pippet at a prescribed dose of the active ingredients per are, at 1.0 leaf stage of the barnyard grass.
(§3) After placing the pots in a glasshouse which was controlled at an average temperature of 25° C. for 3 weeks, herbicidal effect was examined.
(§4) Evaluation of the herbicidal effect is shown in the following six grades, by comparing the condition of untreated control and growth inhibition (%): • 0: 0%-less than 20% • 1: 20%-less than 40% • 2: 40%-less than 60% • 3: 60%-less than 80% • 4: 80%-less than 100% • 5: 100%.

[2] = system: Monochoria (Monochoria vaginalis); assay: Weed control test for paddy field (Test Example 1): Monochoria; details: paddy pots, treated at 1.0 leaf stage of barnyard grass, examined after 3 weeks
Excerpt: as §1, §2, §3, §4

[3] = system: Japanese bulrush (Scirpus juncoides); assay: Weed control test for paddy field (Test Example 1): Japanese bulrush; details: paddy pots, treated at 1.0 leaf stage of barnyard grass, examined after 3 weeks
Excerpt: as §1, §2, §3, §4

[4] = system: flat sedge (Cyperus serotinus); assay: Weed control test for paddy field (Test Example 1): flat sedge; details: paddy pots, treated at 1.0 leaf stage of barnyard grass, examined after 3 weeks
Excerpt: as §1, §2, §3, §4

rice plant = assay: Weed control test for paddy field (Test Example 1): phytotoxicity to rice plant; details: paddy pots, treated at 1.0 leaf stage of barnyard grass, examined after 3 weeks
Excerpt: as §1, §2, §3
(§5) Evaluation of phytotoxicity is shown in the following six grades, as compared with the condition of untreated control: • 0: normal growth • 1: little damaged • 2: low damaged • 3: medium damaged • 4: serious damaged • 5: complete killed.

[5] = system: southern crabgrass (Digitaria ciliaris); assay: Soil treatment test for upland field (Test Example 2): southern crabgrass; details: soil treatment before germination, examined after 3 weeks
Excerpt: as §4
(§6) Upland field soil was filled in 1/3,000 are pots, seeded with southern crabgrass (Digitaria ciliaris), common lambsquaters (Chenopodium album), slender amaranth (Amaranthus viridis), common purslane (Portulaca oleracea), velvetleaf (Abutilon theophrasti), wheat, corn and soybean. The seeds were covered up with the soil.
(§7) Wettable powders containing the object compounds (1) as identified in Table 1, which were formulated following Preparation Example 2, were diluted with adequate amount of water to secure the prescribed dose of the active ingredient, and uniformly sprayed onto the surface soil layer after the seeding and before germination of the weeds, at an application water of 15 liters per are.
(§8) After placing the test pots in a glasshouse which was kept at an average temperature of 25° C. for 3 weeks, the herbicidal effect was examined.
(§9) Evaluations of the herbicidal effect and phytotoxicity were made in the manner similar to those in the above Test Example 1.

[6] = system: common lambsquaters (Chenopodium album); assay: Soil treatment test for upland field (Test Example 2): common lambsquaters; details: soil treatment before germination, examined after 3 weeks
Excerpt: as §4, §6, §7, §8, §9

[7] = system: slender amaranth (Amaranthus viridis); assay: Soil treatment test for upland field (Test Example 2): slender amaranth; details: soil treatment before germination, examined after 3 weeks
Excerpt: as §4, §6, §7, §8, §9

[8] = system: common purslane (Portulaca oleracea); assay: Soil treatment test for upland field (Test Example 2): common purslane; details: soil treatment before germination, examined after 3 weeks
Excerpt: as §4, §6, §7, §8, §9

[9] = system: velvetleaf (Abutilon theophrasti); assay: Soil treatment test for upland field (Test Example 2): velvetleaf; details: soil treatment before germination, examined after 3 weeks
Excerpt: as §4, §6, §7, §8, §9

wheat [10] = assay: Soil treatment test for upland field (Test Example 2): phytotoxicity to wheat; details: soil treatment before germination, examined after 3 weeks
Excerpt: as §5, §6, §8

corn [11] = assay: Soil treatment test for upland field (Test Example 2): phytotoxicity to corn; details: soil treatment before germination, examined after 3 weeks
Excerpt: as §5, §6, §8

soybean [12] = assay: Soil treatment test for upland field (Test Example 2): phytotoxicity to soybean; details: soil treatment before germination, examined after 3 weeks
Excerpt: as §5, §6, §8

southern crabgrass = assay: Foliage treatment test for upland field (Test Example 3): southern crabgrass; details: foliage treatment at 1.0-2.0 leaf stage of southern crabgrass, examined after 3 weeks
Excerpt: as §4
(§10) Compost mixed soil was filled in 1/3,000 are pots, seeded with southern crabgrass, common lambsquaters, slender amaranth, common purslane, velvetleaf, wheat, corn and soybean. The seeds were covered up with the soil and cultured in a glasshouse kept at 25° C. on the average.
(§11) Wettable powders containing the object compounds (1) as identified in Table 1, which were formulated following Preparation Example 2, were diluted with water to the prescribed dose of the active ingredient, and uniformly sprayed onto the weeds at 1.0-2.0 leaf stage of the southern crabgrass at an application water of 15 liters per are.
(§12) After placing the test pots in a grasshouse kept at 25° C. on the average for 3 weeks, the herbicidal effect was examined.
(§13) Evaluation of the herbicidal effect was conducted in the similar manner to Test Example 1.

common lambsquaters = assay: Foliage treatment test for upland field (Test Example 3): common lambsquaters; details: foliage treatment at 1.0-2.0 leaf stage of southern crabgrass, examined after 3 weeks
Excerpt: as §4, §10, §11, §12, §13

slender amaranth = assay: Foliage treatment test for upland field (Test Example 3): slender amaranth; details: foliage treatment at 1.0-2.0 leaf stage of southern crabgrass, examined after 3 weeks
Excerpt: as §4, §10, §11, §12, §13

common purslane = assay: Foliage treatment test for upland field (Test Example 3): common purslane; details: foliage treatment at 1.0-2.0 leaf stage of southern crabgrass, examined after 3 weeks
Excerpt: as §4, §10, §11, §12, §13

velvetleaf = assay: Foliage treatment test for upland field (Test Example 3): velvetleaf; details: foliage treatment at 1.0-2.0 leaf stage of southern crabgrass, examined after 3 weeks
Excerpt: as §4, §10, §11, §12, §13

wheat [13] = assay: Foliage treatment test for upland field (Test Example 3): phytotoxicity to wheat; details: foliage treatment at 1.0-2.0 leaf stage of southern crabgrass, examined after 3 weeks
Description: as §5, §10, §12

corn [14] = assay: Foliage treatment test for upland field (Test Example 3): phytotoxicity to corn; details: foliage treatment at 1.0-2.0 leaf stage of southern crabgrass, examined after 3 weeks
Description: as §5, §10, §12

soybean [15] = assay: Foliage treatment test for upland field (Test Example 3): phytotoxicity to soybean; details: foliage treatment at 1.0-2.0 leaf stage of southern crabgrass, examined after 3 weeks
Description: as §5, §10, §12

CCOC/C(=C\c1cccc(C(F)(F)F)c1)c1nc2cc(Cl)ccc2o1 [Compound 11]
Herbicidal Effect Barnyard grass ([1]; dose 2.5 g ai/a): 5 (100%) | Herbicidal Effect Barnyard grass ([1]; dose 5 g ai/a): 5 (100%) | Herbicidal Effect Monochoria vaginalis ([2]; dose 2.5 g ai/a): 5 (100%) | Herbicidal Effect Monochoria vaginalis ([2]; dose 5 g ai/a): 5 (100%) | Herbicidal Effect Japanese bulrush ([3]; dose 2.5 g ai/a): 4 (80%-less than 100%) | Herbicidal Effect Japanese bulrush ([3]; dose 5 g ai/a): 5 (100%) | Herbicidal Effect Flat sedge ([4]; dose 2.5 g ai/a): 3 (60%-less than 80%) | Herbicidal Effect Flat sedge ([4]; dose 5 g ai/a): 5 (100%) | Phytotoxicity Rice plant (rice plant; dose 2.5 g ai/a): 1 | Phytotoxicity Rice plant (rice plant; dose 5 g ai/a): 1 | Herbicidal Effect southern crabgrass ([5]; dose 2.5 g ai/a): 5 (100%) | Herbicidal Effect southern crabgrass ([5]; dose 5 g ai/a): 5 (100%) | Herbicidal Effect common lambsquaters ([6]; dose 2.5 g ai/a): 5 (100%) | Herbicidal Effect common lambsquaters ([6]; dose 5 g ai/a): 5 (100%) | Herbicidal Effect slender amaranth ([7]; dose 2.5 g ai/a): 5 (100%) | Herbicidal Effect slender amaranth ([7]; dose 5 g ai/a): 5 (100%) | Herbicidal Effect common purslane ([8]; dose 2.5 g ai/a): 5 (100%) | Herbicidal Effect common purslane ([8]; dose 5 g ai/a): 5 (100%) | Herbicidal Effect velvetleaf ([9]; dose 2.5 g ai/a): 3 (60%-less than 80%) | Herbicidal Effect velvetleaf ([9]; dose 5 g ai/a): 4 (80%-less than 100%) | Phytotoxicity wheat (wheat [10]; dose 2.5 g ai/a): 0 | Phytotoxicity wheat (wheat [10]; dose 5 g ai/a): 0 | Phytotoxicity corn (corn [11]; dose 2.5 g ai/a): 1 | Phytotoxicity corn (corn [11]; dose 5 g ai/a): 1 | Phytotoxicity soybean (soybean [12]; dose 2.5 g ai/a): 0 | Phytotoxicity soybean (soybean [12]; dose 5 g ai/a): 0 | Herbicidal Effect southern crabgrass (southern crabgrass; dose 2.5 g ai/a): 5 (100%) | Herbicidal Effect southern crabgrass (southern crabgrass; dose 5 g ai/a): 5 (100%) | Herbicidal Effect Common lambsquatters (common lambsquaters; dose 2.5 g ai/a): 5 (100%) | Herbicidal Effect Common lambsquatters (common lambsquaters; dose 5 g ai/a): 5 (100%) | Herbicidal Effect slender amaranth (slender amaranth; dose 2.5 g ai/a): 5 (100%) | Herbicidal Effect slender amaranth (slender amaranth; dose 5 g ai/a): 5 (100%) | Herbicidal Effect common purslane (common purslane; dose 2.5 g ai/a): 5 (100%) | Herbicidal Effect common purslane (common purslane; dose 5 g ai/a): 5 (100%) | Herbicidal Effect velvetleaf (velvetleaf; dose 2.5 g ai/a): 5 (100%) | Herbicidal Effect velvetleaf (velvetleaf; dose 5 g ai/a): 5 (100%) | Phytotoxicity wheat (wheat [13]; dose 2.5 g ai/a): 1 | Phytotoxicity wheat (wheat [13]; dose 5 g ai/a): 1 | Phytotoxicity corn (corn [14]; dose 2.5 g ai/a): 2 | Phytotoxicity corn (corn [14]; dose 5 g ai/a): 1 | Phytotoxicity soybean (soybean [15]; dose 2.5 g ai/a): 2 | Phytotoxicity soybean (soybean [15]; dose 5 g ai/a): 1

COCC(=Cc1ccc(F)c(C(F)(F)F)c1)c1nc2cc(F)c(F)cc2o1 [Compound 126]
Herbicidal Effect Barnyard grass ([1]; dose 2.5 g ai/a): 5 (100%) | Herbicidal Effect Barnyard grass ([1]; dose 5 g ai/a): 5 (100%) | Herbicidal Effect Monochoria vaginalis ([2]; dose 2.5 g ai/a): 5 (100%) | Herbicidal Effect Monochoria vaginalis ([2]; dose 5 g ai/a): 5 (100%) | Herbicidal Effect Japanese bulrush ([3]; dose 2.5 g ai/a): 3 (60%-less than 80%) | Herbicidal Effect Japanese bulrush ([3]; dose 5 g ai/a): 4 (80%-less than 100%) | Herbicidal Effect Flat sedge ([4]; dose 2.5 g ai/a): 2 (40%-less than 60%) | Herbicidal Effect Flat sedge ([4]; dose 5 g ai/a): 3 (60%-less than 80%) | Phytotoxicity Rice plant (rice plant; dose 2.5 g ai/a): 0 | Phytotoxicity Rice plant (rice plant; dose 5 g ai/a): 0 | Herbicidal Effect southern crabgrass ([5]; dose 2.5 g ai/a): 4 (80%-less than 100%) | Herbicidal Effect southern crabgrass ([5]; dose 5 g ai/a): 5 (100%) | Herbicidal Effect common lambsquaters ([6]; dose 2.5 g ai/a): 5 (100%) | Herbicidal Effect common lambsquaters ([6]; dose 5 g ai/a): 5 (100%) | Herbicidal Effect slender amaranth ([7]; dose 2.5 g ai/a): 5 (100%) | Herbicidal Effect slender amaranth ([7]; dose 5 g ai/a): 5 (100%) | Herbicidal Effect common purslane ([8]; dose 2.5 g ai/a): 5 (100%) | Herbicidal Effect common purslane ([8]; dose 5 g ai/a): 5 (100%) | Herbicidal Effect velvetleaf ([9]; dose 2.5 g ai/a): 3 (60%-less than 80%) | Herbicidal Effect velvetleaf ([9]; dose 5 g ai/a): 4 (80%-less than 100%) | Phytotoxicity wheat (wheat [10]; dose 2.5 g ai/a): 0 | Phytotoxicity wheat (wheat [10]; dose 5 g ai/a): 0 | Phytotoxicity corn (corn [11]; dose 2.5 g ai/a): 0 | Phytotoxicity corn (corn [11]; dose 5 g ai/a): 0 | Phytotoxicity soybean (soybean [12]; dose 2.5 g ai/a): 0 | Phytotoxicity soybean (soybean [12]; dose 5 g ai/a): 0 | Herbicidal Effect southern crabgrass (southern crabgrass; dose 2.5 g ai/a): 4 (80%-less than 100%) | Herbicidal Effect southern crabgrass (southern crabgrass; dose 5 g ai/a): 5 (100%) | Herbicidal Effect Common lambsquatters (common lambsquaters; dose 2.5 g ai/a): 5 (100%) | Herbicidal Effect Common lambsquatters (common lambsquaters; dose 5 g ai/a): 5 (100%) | Herbicidal Effect slender amaranth (slender amaranth; dose 2.5 g ai/a): 5 (100%) | Herbicidal Effect slender amaranth (slender amaranth; dose 5 g ai/a): 5 (100%) | Herbicidal Effect common purslane (common purslane; dose 2.5 g ai/a): 5 (100%) | Herbicidal Effect common purslane (common purslane; dose 5 g ai/a): 5 (100%) | Herbicidal Effect velvetleaf (velvetleaf; dose 2.5 g ai/a): 3 (60%-less than 80%) | Herbicidal Effect velvetleaf (velvetleaf; dose 5 g ai/a): 4 (80%-less than 100%) | Phytotoxicity wheat (wheat [13]; dose 2.5 g ai/a): 0 | Phytotoxicity wheat (wheat [13]; dose 5 g ai/a): 1 | Phytotoxicity corn (corn [14]; dose 2.5 g ai/a): 0 | Phytotoxicity corn (corn [14]; dose 5 g ai/a): 1 | Phytotoxicity soybean (soybean [15]; dose 2.5 g ai/a): 1 | Phytotoxicity soybean (soybean [15]; dose 5 g ai/a): 1
